Assay results published in patent publication US20070009544A1, “Anti-allergic complex molecules” (priority 1999, published 2007).
Values after ≈ are worked out from the molar mass of the structure shown. “Also recorded” adds a separate entry of the source. Marks after values point to notes of the source that are not given here. Numbered stars: 1 amine (or outer) side, 2 acyl side, 3 side chain; on linkers, the order of the positions; unused ones are H or OH. Ends that are not written are not given here. Peptide text beside a SMILES is read from it. Suc = O=C(CCC(=O)[*:2])[*:1]

How the values were obtained:
[1] = system: abdominal skin of C.R rats; assay: Rat skin test: intradermal injection of peptide, then intradermal compound 48/80 or vehicle, wheal area; format: in vivo
Protocol: (§1) The hair of the abdominal area of C.R rats was carefully removed with an electric clipper and a depilatory cream. In each animal the abdominal area was divided to six equal zones that were marked by pen. Each zone was either subjected to peptide treatment or served as a control. In the first set of experiments, the peptide was topically applied as follows: 36 μl of peptide solution at the indicated concentration (dissolved in 72% DMSO in saline) was applied on desired abdominal area. In the second set of experiments, the peptide was injected intradermally as follows: 20 μl of peptide solution at different concentrations (dissolved in 10% DMSO in saline) was injected intradermally to an indicated abdominal area using a 27-gauge sterile needle.
(§2) Skin tests were performed 0.5, 1 or 2 hours following application of the peptide. Skin tests were performed by injecting intradermally 20 μl of the allergen (0.1 mg/ml compound 48/80 dissolved in saline) or saline alone, into the center of each marked area on the abdominal skin using a 27-gauge sterile needle. The allergic response was monitored by outlining with a marker the wheals which developed in response to allergen or saline treatment.
(§3) To quantitate the skin test results, the marker signs were transferred onto paper with scotch tape. The areas of the wheals were outlined and calculated by a computerized planimeter (Hewlett-Packard), as previously described (Sussman et al., 1982).
Tables 10-16 presents the mean areas of the wheals, which developed in response to intradermal injection of each of the tested peptides, followed by either compound 48/80 or DDW injection applied after 0.5 or 1 hour. Two doses were tested for each peptide-20 and 200 μg (injection of 20 μl from a stock solution of 1 mg/ml or 10 mg/m respectively).
Skin tests on rats using compound 48/80 as the allergen assessed the ability of the peptides of the present invention to block allergic cutaneous reactions. The abdominal skin of the rats was subjected to peptide (indicated concentrations are listed in Tables 17A-17B below) or vehicle treatment (intradermal injection); the allergic response was induced by intradermal injection of compound 48/80 at various times; and the allergic response was quantified by calculating the area of the resultant allergic wheals.

[2] = system: purified rat peritoneal mast cells; assay: Histamine secretion from intact mast cells incubated with peptide alone (secretagogue side effect); conditions: for Secretagogue (histamine secretion following incubation of mast cell with different concentrations of each peptide): no allergen; for histamine secretion from mast cells on incubation with increasing concentrations of peptide alone: no additional allergen
Protocol: Mast cells from the peritoneal cavity of C.R rats were isolated in Tyrode buffer (137 mM NaCl, 2.7 mM KC1, 1 mM MgCl2, 0.4 mM NaH2PO4, 20 mM Hepes, 1.0 mM CaCl2, 5.6 mM glucose, 1 mg/ml BSA, pH 7.2) and purified over a Ficoll gradient. A suspension of washed peritoneal cells was placed over a cushion of 30% Ficoll 400 (Pharmacia Biotech.) in buffered Saline containing 0.1% BSA; and centrifuged at 150O×g for 15 min. The purity of mast cells recovered from the bottom of the tube was >90%, as assessed by toluidine blue staining.
Purified mast cells (duplicated of 10^5 cells/0.5 ml) were incubated in Tyrode buffer with buffer or with desired concentrations of the indicated peptide for 2 h. at. 37° C. Histamine secretion was subsequently stimulated by the indicated concentration of compound 48/80 (Sigma) dissolved in Tyrode buffer. Incubation with compound 48/80 was carried out for 20 mm.in at 37° C. The reaction was terminated by placing the tubes on ice. The cells were sedimented by centrifugation at 150×g for 5 mm.in and the supernatants were collected. The amount of histamine release was determined as previously described (Aridor et al., 1990). Briefly, cell pellets were lysed using 0.1N NaOH and the volume of each sample was adjusted to 0.5 ml by H2O. Histamine content was assayed using the o-phtalaldehyde (OPT) fluorimetric method (Shore et al., 1959). Aliquots of 0.4 ml from the supernatants and cell lysates were incubated with 1.6 ml H20, 0.4 ml 1N NaOH and 0.1 ml of 10 mg/l ml OPT in methanol, for 4 min at room temperature. The reaction was terminated by the addition of 0.2 ml 3N HCl. Samples were centrifuged at 150×g for 5 min. and 0.2 ml samples were transferred to a 96 well plate. The histamine spectrofluorometric assay was run in microplates using a microplates reader (FL-600, Biotek instruments Winooski, Vt., USA). Samples were excited by light at 340 nm and read at 440 nm. Histamine release was calculated as the percentage of total histamine content (supernatant/pellet+supernatant) in each sample. Each data point represents the average of duplicate measurements. The spontaneously released histamine was subtracted.

[3] = system: purified rat peritoneal mast cells; format: cell-based
Protocol: 37° C. […] Each data point represents the average of duplicate measurements. The spontaneously released histamine was subtracted.
First, the effect of compound 48/80 on exocytosis from intact mast cells was determined. […] Histamine release was determined and is presented as the net secretion that is % of the total cellular histamine following subtraction of the spontaneously released histamine. Half-maximal release was obtained at 0.1 μg/ml while maximal release was obtained at 1-10 μg/ml. Accordingly, in order to analyze the potential of each peptide to block histamine secretion, histamine secretion was induced with 5 μg/ml compound 48/80, a concentration that induces a maximal histamine release, while the cells were incubated in the presence of increasing concentrations of each peptide.
In order to investigate the ability of these peptides to block allergen-induced exocytosis, the peptides were examined for their ability to block compound 48/80 induced histamine secretion from intact mast cells in vitro. Mast cells were incubated with different concentrations of each peptide, followed by induction of histamine secretion by compound 48/80.

[4] = system: abdominal skin of C.R rats; assay: Rat skin test: topical application of peptide, then intradermal compound 48/80 or saline, wheal area; format: in vivo
Protocol: as §1, §2, §3

mice = assay: IgE-independent mouse conjunctivitis induced by compound 48/80, clinical score; format: in vivo; set-up: scale not given here; conditions: drug 2% followed by vehicle
Protocol: A murine model was chosen as an in vivo model of IgE-independent human conjunctivitis, induced by a basic secretagogue.
Six groups of mice were topically treated as described in Table 19. The first application was installed 4 times (24 hours, 21 hours, 18 hours and 30 minutes) prior to the second application.
Clinical evaluation of allergic conjunctivitis was conducted in a blind fashion by determining the extent and intensity of lid edema, chemosis, erythema and tearing.

[5] = intradermal peptide 1 mg/ml, 0.5 hour before, vehicle instead of compound 48/80
[6] = intradermal peptide 1 mg/ml, 1 hour before, vehicle instead of compound 48/80
[7] = intradermal peptide 10 mg/ml, 0.5 hour before, vehicle instead of compound 48/80
[8] = intradermal peptide 10 mg/ml, 1 hour before, vehicle instead of compound 48/80

CC(C)C[C@H](NC(=O)CNC(=O)[C@@H](NC(=O)[C@H](CCC(=O)O)NC(=O)[C@H](CCCCN)NC(=O)[C@H](CC(C)C)NC(=O)[C@H](CC(N)=O)NC(=O)[C@H](CC(N)=O)NC(=O)[C@H](CCCCN)NC(=O)[C@@H]1CCCN1C(=O)[C@H](C)NC(=O)[C@H](CC(C)C)NC(=O)[C@H](CC(C)C)NC(=O)[C@H](C)NC(=O)[C@H](CC(C)C)NC(=O)[C@H](CC(C)C)NC(=O)[C@@H](NC(=O)[C@H](C)NC(=O)[C@@H]1CCCN1C(=O)[C@H](CC(C)C)NC(=O)[C@H](CC(C)C)NC(=O)[C@H](C)NC(=O)[C@@H](NC(=O)[C@H](C)NC(=O)[C@H](C)NC(=O)CCC(=O)O)C(C)C)C(C)C)C(C)C)C(=O)N[C@@H](Cc1ccc(O)cc1)C(=O)O [WALL016] (Suc-AAVALLPAVLLALLAPKNNLKEVGLY-OH; C-terminus assumed)
block of compound 48/80 induced allergic reaction in vivo, rat skin ([1]; intradermal peptide): effectively block the allergic response in vivo
Mean Wheal Area ± STD, Compound 48/80 ([1]; intradermal peptide 1 mg/ml, 0.5 hour before allergic induction): 104.2 ± 21.6 (n = 5) mm^2
Mean Wheal Area ± STD, Vehicle [1, 5]: 66.4 ± 12.5 (n = 5) mm^2
Mean Wheal Area ± STD, Compound 48/80 ([1]; intradermal peptide 1 mg/ml, 1 hour before allergic induction): 96.3 ± 15.6 (n = 6) mm^2
Mean Wheal Area ± STD, Vehicle [1, 6]: 62.8 ± 14.6 (n = 6) mm^2
Mean Wheal Area ± STD, Compound 48/80 ([1]; intradermal peptide 10 mg/ml, 0.5 hour before allergic induction): 81.2 ± 7.9 (n = 5) mm^2
Mean Wheal Area ± STD, Vehicle [1, 7]: 72.6 ± 16.2 (n = 5) mm^2
Mean Wheal Area ± STD, Compound 48/80 ([1]; intradermal peptide 10 mg/ml, 1 hour before allergic induction): 82.1 ± 27.2 (n = 6) mm^2
Mean Wheal Area ± STD, Vehicle [1, 8]: 69.3 ± 17.0 (n = 6) mm^2
reduction of compound 48/80 induced allergic reaction ([1]; intradermal peptide 0.5 or 1 hour before allergic induction): significant inhibition
Secretagogue (histamine secretion following incubation of mast cell with different concentrations of each peptide) ([2]; Table 9, peptide alone): −
histamine secretion from mast cells on incubation with increasing concentrations of peptide alone [2]: did not result in histamine secretion
basal level of histamine secretion compared to control cells ([2]; peptide alone, increasing concentrations): inhibition of the basal histamine secretion
IC50, compound 48/80 induced histamine secretion [3]: 295 mg/L (≈ 106 µM)
maximal inhibition of compound 48/80 induced histamine secretion ([3]; 600 μg/ml peptide, compound 48/80 concentration not given): 79.6%
Inhibitor (extent of inhibition of histamine secretion from mast cells) ([3]; Table 9, incubation with different concentrations of each peptide, then induction of the allergic reaction): ++ (++ Moderate inhibitor (50%-70% inhibition))

AAVALLPAVLLALLAPKNNLKECGLY [Peptide 2]
stimulatory effect of topical peptide by itself on the cutaneous allergic reactions ([4]; peptide and saline injection, without compound 48/80): no stimulatory effect
Net wheal area, effect of peptide (alone) ([4]; topical 1 mg/ml, Animal A, 1 hour after application): −8.8 mm2
Net wheal area, effect of peptide (alone) ([4]; topical 1 mg/ml, Animal B (footnote: 1 hour after application)): −5.5 mm2
Net wheal area, effect of peptide (alone) ([4]; topical 10 mg/ml, Animal A, 1 hour after application): −8.3 mm2
Net wheal area, effect of peptide (alone) ([4]; topical 10 mg/ml, Animal B (footnote: 1 hour after application)): −6.0 mm2
Wheal area, saline injection (control) ([4]; topical peptide 1 mg/ml, animal a, skin test 1 hour after application): 84.64^a mm^2
Wheal area, saline injection (control) ([4]; topical peptide 1 mg/ml, animal b, 2 hours after application): 66.91^b mm^2
Wheal area, saline injection (control) ([4]; topical peptide 10 mg/ml, animal a, 1 hour after application): 85.24^a mm^2
Wheal area, saline injection (control) ([4]; topical peptide 10 mg/ml, animal b, 2 hours after application): 66.40^b mm^2
Mean Wheal Area ± STD, Vehicle ([1]; Tables 17A-B, column head '0.1' (no unit), 0.5 hr prior to allergy induction): 57.0 ± 8.3 (n = 12) mm^2
Mean Wheal Area ± STD, Vehicle ([1]; Tables 17A-B, column head '0.1' (no unit), 1 hour prior): 56.2 ± 11.3 (n = 5) mm^2
Mean Wheal Area ± STD, Vehicle ([1]; Tables 17A-B, column head '1' (no unit), 0.5 hr prior): 61.7 ± 13.5 (n = 19) mm^2
Mean Wheal Area ± STD, Vehicle ([1]; Tables 17A-B, column head '1' (no unit), 1 hour prior): 50.6 ± 7.4 (n = 5) mm^2
Net wheal area, effect of peptide (alone) ([1]; intradermal 1 mg/ml, Animal A, 0.5 hour): 3.29 mm2
Net wheal area, effect of peptide (alone) ([1]; intradermal 1 mg/ml, Animal B, 1 hour): 7.0 mm2
Net wheal area, effect of peptide (alone) ([1]; intradermal 1 mg/ml, Animal C, 2 hours): 16.5 mm2
Net wheal area, effect of peptide (alone) ([1]; intradermal 10 mg/ml, Animal A, 0.5 hour): −1.68 mm2
Net wheal area, effect of peptide (alone) ([1]; intradermal 10 mg/ml, Animal B, 1 hour): −9.9 mm2
Net wheal area, effect of peptide (alone) ([1]; intradermal 10 mg/ml, Animal C, 2 hours): −3.0 mm2
Mean Wheal Area ± STD, Vehicle [1, 5]: 60.7 ± 19.3 (n = 7) mm^2
Mean Wheal Area ± STD, Vehicle [1, 6]: 52.3 ± 11.1 (n = 5) mm^2
Wheal area, saline injection (control) ([1]; intradermal peptide 1 mg/ml, animal a, 0.5 hour after injection): 65.78^a mm2
Wheal area, saline injection (control) ([1]; intradermal peptide 1 mg/ml, animal b, 1 hour): 119.2^b mm2
Wheal area, saline injection (control) ([1]; intradermal peptide 1 mg/ml, animal c, 2 hours): 77.31^c mm2
Mean Wheal Area ± STD, Vehicle [1, 7]: 54.8 ± 11 (n = 5) mm^2
Mean Wheal Area ± STD, Vehicle [1, 8]: 50.6 ± 7.411 (n = 5) mm^2
Wheal area, saline injection (control) ([1]; intradermal peptide 10 mg/ml, animal a, 0.5 hour): 60.81^a mm2
Wheal area, saline injection (control) ([1]; intradermal peptide 10 mg/ml, animal b, 1 hour): 102.3^b mm2
Wheal area, saline injection (control) ([1]; intradermal peptide 10 mg/ml, animal c, 2 hours): 57.81^c mm2
effect of intradermal injection of peptide alone on the cutaneous allergic reactions ([1]; without compound 48/80): hardly any stimulatory effect; also recorded: no cutaneous allergic reaction
Average Score, Erythema (mice; no compound 48/80): 0.6
Average Score, Lid edema (mice; no compound 48/80): 0
Average Score, Tearing (mice; no compound 48/80): 0.2
Average Score, Total score (mice; no compound 48/80): 0.8
Average Score, Chemosis (mice; no compound 48/80 (Table 19 group 2)): 0
Secretagogue (histamine secretion following incubation of mast cell with different concentrations of each peptide) ([2]; Table 1, peptide alone): −
IC50, compound 48/80 induced histamine secretion [3]: 400 mg/L

AAVALLPAVLLALLAPKNNLKEVGLY [WALL007]
Mean Wheal Area ± STD, Vehicle [1, 5]: 76.5 ± 14.1 (n = 12) mm^2
Mean Wheal Area ± STD, Vehicle [1, 6]: 62.4 ± 11.1 (n = 15) mm^2
Mean Wheal Area ± STD, Vehicle [1, 7]: 74.5 ± 26.4 (n = 12) mm^2
Mean Wheal Area ± STD, Vehicle [1, 8]: 65.9 ± 10.0 (n = 11) mm^2
Secretagogue (histamine secretion following incubation of mast cell with different concentrations of each peptide) ([2]; Table 9, peptide alone): −
histamine secretion from mast cells on incubation with increasing concentrations of peptide alone [2]: did not result in histamine secretion
IC50, compound 48/80 induced histamine secretion [3]: 230 mg/L
